Assay results taken from PubChem BioAssay AID276 (DTP/NCI, 2004).
Values joined by “and” are separate entries in the source; they are usually repeats but may differ in a detail not shown here. Equal entries are not always repeated. Inconclusive results and toxic doses are left out.

Test system: B6C3F1 mice, Lewis lung carcinoma iv, survival T/C
Experiment: NCI In Vivo Anticancer Drug Screen. Data for tumor model Lewis Lung Carcinoma (intravenous) in B6C3F1 mice
Conditions: endpoint: median survival time, schedule: Q01DX009 (ip), higher = longer survival
Description: The antitumor activity of compounds was measured in mice bearing transplantable tumors. Survival or tumor size were measured and the results are expressed as the measurement made in the treated group (T) divided by the measurement made in the vehicle treated control group (C). The tumor model used in this assay is Lewis Lung Carcinoma (intravenous) in B6C3F1 mice

[1] = dose: 25.0 mg/kg/injection, vehicle: saline with Tween-80
[2] = dose: 50.0 mg/kg/injection, vehicle: saline with Tween-80
[3] = dose: 0.25 mg/kg/injection, vehicle: saline
[4] = dose: 12.5 mg/kg/injection, vehicle: saline
[5] = dose: 25.0 mg/kg/injection, vehicle: saline
[6] = dose: 50.0 mg/kg/injection, vehicle: saline
[7] = dose: 100.0 mg/kg/injection, vehicle: saline
[8] = dose: 200.0 mg/kg/injection, vehicle: saline
[9] = dose: 3.12 mg/kg/injection, vehicle: distilled water + Tween-80 + alcohol
[10] = dose: 6.25 mg/kg/injection, vehicle: distilled water + Tween-80 + alcohol
[11] = dose: 12.5 mg/kg/injection, vehicle: distilled water + Tween-80 + alcohol
[12] = dose: 25.0 mg/kg/injection, vehicle: distilled water + Tween-80 + alcohol

SMILES: CC(Cc1ccc(O)c(O)c1)C(C)Cc1ccc(O)c(O)c1 (stereo unspecified)
- T/C (dose: 12.0 mg/kg/injection, vehicle: saline with Tween-80): 100 % of control
- T/C [1]: 113 % of control
- T/C [2]: 103 % of control
- T/C (dose: 100.0 mg/kg/injection, vehicle: saline with Tween-80): 94 % of control
- T/C (dose: 200.0 mg/kg/injection, vehicle: saline with Tween-80): 104 % of control
- T/C (dose: 400.0 mg/kg/injection, vehicle: saline with Tween-80): 100 % of control

SMILES: CC(=O)C(=O)O.CC(=O)C(=O)O.[NH-]C1CCCCC1[NH-].[Pt+2] (stereo unspecified)
- T/C (dose: 3.12 mg/kg/injection, vehicle: other): 98 % of control
- T/C (dose: 6.25 mg/kg/injection, vehicle: other): 109 % of control
- T/C (dose: 12.5 mg/kg/injection, vehicle: other): 96 % of control

SMILES: CC(=O)[C@]1(O)Cc2c(O)c3c(c(O)c2[C@@H](OC2CC(N)C(O)C(C)O2)C1)C(=O)c1c(O)cccc1C3=O (stereo partly specified)
- T/C (dose: 0.03 mg/kg/injection, vehicle: saline): 107 % of control
- T/C (dose: 0.06 mg/kg/injection, vehicle: saline): 96 % of control
- T/C (dose: 0.12 mg/kg/injection, vehicle: saline): 108 % of control
- T/C [3]: 117 % of control

SMILES: C=CCOCC1CO1 (stereo unspecified)
- T/C [4]: 105 % of control
- T/C [5]: 100 % of control
- T/C [6]: 99 % of control
- T/C [7]: 104 % of control
- T/C [8]: 115 % of control

SMILES: COC(=O)C12OCC34C(CC5C(C)C6=CC(=O)OC6=CC5(C)C3C(O)C1O)OC(=O)C(OC(C)=O)C24 (stereo unspecified)
- T/C (dose: 2.0 mg/kg/injection, vehicle: saline + alcohol): 102 % of control
- T/C (dose: 4.0 mg/kg/injection, vehicle: saline + alcohol): 97 % of control
- T/C (dose: 8.0 mg/kg/injection, vehicle: saline + alcohol): 96 % of control
- T/C (dose: 16.0 mg/kg/injection, vehicle: saline + alcohol): 98 % of control
- T/C (dose: 125.0 micrograms/kg/injection, vehicle: saline + alcohol): 114 % of control
- T/C (dose: 250.0 micrograms/kg/injection, vehicle: saline + alcohol): 118 % of control
- T/C (dose: 500.0 micrograms/kg/injection, vehicle: saline + alcohol): 109 % of control
- T/C (dose: 1000.0 micrograms/kg/injection, vehicle: saline + alcohol): 106 % of control
- T/C (dose: 2000.0 micrograms/kg/injection, vehicle: saline + alcohol): 112 % of control

SMILES: CN(C)CCN1C(=O)c2cccc3cc(N)cc(c23)C1=O
- T/C (dose: 1.0 mg/kg/injection, vehicle: saline with Tween-80): 115 % of control
- T/C (dose: 2.0 mg/kg/injection, vehicle: saline with Tween-80): 106 % of control
- T/C (dose: 4.0 mg/kg/injection, vehicle: saline with Tween-80): 111 % of control
- T/C (dose: 8.0 mg/kg/injection, vehicle: saline with Tween-80): 119 % of control

SMILES: CC1=NN(c2cccc(S(=O)(=O)O)c2)C(=O)C1N=Nc1cc(Cl)cc(S(=O)(=O)O)c1O.CC1=NN(c2cccc(S(=O)(=O)O)c2)C(=O)C1N=Nc1cc(Cl)cc(S(=O)(=O)O)c1O.[Cr] (stereo unspecified)
- T/C [5]: 92 % of control
- T/C [6]: 100 % of control
- T/C [7]: 98 % of control
- T/C [8]: 98 % of control

SMILES: COc1cc2c(c(OC)c1OC)-c1ccc(OC)c(=O)cc1[C@@H](NC(=O)CCl)CC2
- T/C (dose: 0.03 mg/kg/injection, vehicle: saline with Tween-80): 114 % of control
- T/C (dose: 0.06 mg/kg/injection, vehicle: saline with Tween-80): 102 % of control
- T/C (dose: 0.12 mg/kg/injection, vehicle: saline with Tween-80): 114 % of control
- T/C (dose: 0.25 mg/kg/injection, vehicle: saline with Tween-80): 106 % of control

SMILES: O=NN(CCCl)C(=O)NC1CCC(CC2CCC(NC(=O)N(CCCl)N=O)CC2)CC1 (stereo unspecified)
- T/C [1]: 190 % of control
- T/C [2]: 165 % of control

SMILES: C[CH2][Pb]([CH2]C)([CH2]C)[O]C(=O)COc1ccccc1
- T/C (dose: 0.08 mg/kg/injection, vehicle: saline with Tween-80): 107 % of control
- T/C (dose: 0.15 mg/kg/injection, vehicle: saline with Tween-80): 99 % of control
- T/C (dose: 0.3 mg/kg/injection, vehicle: saline with Tween-80): 99 % of control
- T/C (dose: 0.6 mg/kg/injection, vehicle: saline with Tween-80): 109 % of control
- T/C (dose: 1.2 mg/kg/injection, vehicle: saline with Tween-80): 108 % of control

SMILES: CC(=O)O[C@@H]1CO[C@H]2O[C@H]3[C@@H](C(C=O)=C[C@H](O)[C@@H]4C5=C(C(C)C)CC[C@]5(C)CC[C@@]34C)[C@@]2(O)C1=O
- T/C (dose: 0.75 mg/kg/injection, vehicle: Klucel (hydroxypropylcellulose) (HPC)): 103 % of control
- T/C (dose: 1.5 mg/kg/injection, vehicle: Klucel (hydroxypropylcellulose) (HPC)): 98 % of control
- T/C (dose: 3.0 mg/kg/injection, vehicle: Klucel (hydroxypropylcellulose) (HPC)): 100 % of control

SMILES: CN(C)CCOc1ccc2c(c1)C/C(=C/c1ncc([N+](=O)[O-])n1C)C2=O
- T/C (dose: 6.25 mg/kg/injection, vehicle: saline with Tween-80): 102 % of control
- T/C (dose: 12.5 mg/kg/injection, vehicle: saline with Tween-80): 88 % of control
- T/C [1]: 104 % of control
- T/C [2]: 100 % of control

SMILES: OC(C1CO1)C(O)C1CO1 (stereo unspecified)
- T/C [3]: 101 % of control
- T/C (dose: 0.5 mg/kg/injection, vehicle: saline): 100 % of control
- T/C (dose: 1.0 mg/kg/injection, vehicle: saline): 102 % of control
- T/C (dose: 2.0 mg/kg/injection, vehicle: saline): 109 % of control

SMILES: Cc1cc(NCCCCCCCCNc2cc(C)nc3cc(N(C)C)ccc23)c2ccc(N(C)C)cc2n1
- T/C [9]: 102 % of control
- T/C [10]: 102 % of control
- T/C [11]: 109 % of control
- T/C [12]: 111 % of control and 118 % of control

SMILES: CN(C)c1ccc2c(NCCCCCCNc3ccnc4cc(N(C)C)ccc34)ccnc2c1
- T/C (dose: 1.56 mg/kg/injection, vehicle: distilled water + Tween-80 + alcohol): 97 % of control
- T/C [9]: 106 % of control
- T/C [10]: 111 % of control
- T/C [11]: 97 % of control
- T/C [12]: 116 % of control

SMILES: CC(=O)OC1C2(CC3N4C(=O)C5(CO)SSC4(CC31O)C(=O)N5C)OC(C)C(C)(C)C2=O (stereo unspecified)
- T/C (dose: 0.08 mg/kg/injection, vehicle: saline): 101 % of control
- T/C (dose: 0.15 mg/kg/injection, vehicle: saline): 88 % of control
- T/C (dose: 0.31 mg/kg/injection, vehicle: saline): 105 % of control
- T/C (dose: 0.62 mg/kg/injection, vehicle: saline): 92 % of control
- T/C (dose: 1.25 mg/kg/injection, vehicle: saline): 86 % of control

SMILES: Nc1nc(F)nc2c1ncn2C1OC(COP(=O)(O)O)C(O)C1O (stereo unspecified)
- T/C [4]: 105 % of control
- T/C [5]: 102 % of control
- T/C [6]: 103 % of control
- T/C [7]: 114 % of control
- T/C [8]: 87 % of control

SMILES: O=C(O)C1CC(c2ccccc2)=NN1c1ccccc1 (stereo unspecified)
- T/C (dose: 12.5 mg/kg/injection, vehicle: water): 102 % of control
- T/C (dose: 25.0 mg/kg/injection, vehicle: water): 97 % of control
- T/C (dose: 50.0 mg/kg/injection, vehicle: water): 102 % of control
- T/C (dose: 100.0 mg/kg/injection, vehicle: water): 112 % of control
- T/C (dose: 200.0 mg/kg/injection, vehicle: water): 106 % of control
